Experiments:
[1] = target: Recombinant human JAK3 enzyme (JAK3 kinase region; Ala795-Ser1124) (Homo sapiens, UniProt P52333); experiment: JAK3 Kinase Assay (Kinase-Glo luminescent, ATP consumption); details: read-out: Inhibition rate (%) of JAK3 kinase activity
Recombinant human JAK3 enzyme (JAK3 kinase region; Ala795-Ser1124), sequence (P52333 795-1124): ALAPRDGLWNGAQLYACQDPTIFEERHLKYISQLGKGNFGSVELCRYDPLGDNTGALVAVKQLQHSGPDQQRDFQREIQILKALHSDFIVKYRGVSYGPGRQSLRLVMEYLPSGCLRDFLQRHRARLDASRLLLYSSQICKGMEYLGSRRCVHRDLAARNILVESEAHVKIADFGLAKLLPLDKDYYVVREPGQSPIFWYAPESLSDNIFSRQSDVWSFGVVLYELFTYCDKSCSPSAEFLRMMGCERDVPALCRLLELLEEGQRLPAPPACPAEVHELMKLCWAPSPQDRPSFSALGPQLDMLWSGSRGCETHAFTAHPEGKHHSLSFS

SMILES | melting point | inhibition at 0.1 µM [1] [%]
CC(C)C(=O)N1CCN(c2ccc(Nc3cc(NCc4ccccc4)c(C(N)=O)cn3)cc2)CC1 [Example 259, 4-(benzylamino)-6-({4-[4-(2-methylpropanoyl)piperazin-1-yl]phenyl}amino)pyridine-3-carboxyamide] | 218 to 220 °C (dec.) | 67
C[C@@H]1CN(c2ccc(Nc3cc(NCc4c(F)cccc4F)c(C(N)=O)cn3)cc2)C[C@H](C)N1 [Example 143, 4-[(2,6-difluorobenzyl)amino]-6-({4-[(3R,5S)-3,5-dimethylpiperazin-1-yl]phenyl}amino) pyridine-3-carboxyamide] | 218 to 219 °C | 88
COc1cc(Nc2cc(NCc3cc(F)cc(F)c3)c(C(N)=O)cn2)ccc1N1CCOCC1 [Example 128, 4-[(3,5-difluorobenzyl)amino]-6-[(3-methoxy-4-morpholinophenyl)amino]pyridine-3-carboxyamide] | 229.6 to 230 °C (dec.) | 92
NC(=O)c1cnc(Nc2ccc(NC3CCNCC3)cc2)cc1NCc1ccccc1 [Example 289, 4-(benzylamino)-6-{[4-(piperidin-4-ylamino)phenyl]amino}pyridine-3-carboxyamide] | 169 to 172 °C (dec.) | 74
NC(=O)c1cnc(Nc2cccc(N3CCOCC3)c2)cc1NCc1cc(F)cc(F)c1 [Example 131, 4-[(3,5-difluorobenzyl)amino]-6-[(3-morpholinophenyl)amino]pyridine-3-carboxyamide] | 197 to 198 °C (dec.) | 91
NCCCc1ccc(Nc2cc(NCc3cc(F)cc(F)c3)c(C(N)=O)cn2)cc1 [Example 201, 6-{[4-(3-aminopropyl)phenyl]amino}-4-[(3,5-difluorobenzyl)amino]pyridine-3-carboxyamide] | 180 to 181 °C | 60
NC(=O)c1cnc(Nc2ccc(N3CCC(=O)CC3)cc2)cc1NCc1cc(F)cc(F)c1 [Example 192, 4-[(3,5-difluorobenzyl)amino]-6-{[4-(4-oxopiperidino)phenyl]amino}pyridine-3-carboxyamide] | 223 to 226 °C (dec.) | 89
CC(C)NC(=O)N1CCC(Nc2ccc(Nc3cc(NCc4ccccc4)c(C(N)=O)cn3)cc2)CC1 [Example 291, 4-(benzylamino)-6-[(4-{[1-(propan-2-ylcarbamoyl)piperidin-4-yl]amino}phenyl)amino]pyridine-3-carboxyamide] | 166 to 167 °C | 79
CCCC(=O)N1CCN(c2ccc(Nc3cc(NCc4ccccc4)c(C(N)=O)cn3)cc2)CC1 [Example 258, 4-(benzylamino)-6-{[4-(4-butanoylpiperazin-1-yl)phenyl]amino}pyridine-3-carboxyamide] | 233.5 to 235.2 °C (dec.) | 60
CS(=O)(=O)NCCN1CCN(c2ccc(Nc3cc(NCc4cc(F)cc(F)c4)c(C(N)=O)cn3)cc2)CC1 [Example 249, 4-[(3,5-difluorobenzyl)amino]-6-{[4-(4-{2-[(methylsulfonyl)amino]ethyl}piperazin-1-yl]phenyl]amino}pyridine-3-carboxyamide] | 216 to 219 °C (dec.) | 81
CC(C)S(=O)(=O)N1CCN(c2ccc(Nc3cc(NCc4cc(F)cc(F)c4)c(C(N)=O)cn3)cc2)CC1 [Example 170, 4-[(3,5-difluorobenzyl)amino]-6-({4-[4-(propan-2-ylsulfonyl)piperazin-1-yl]phenyl}amino) pyridine-3-carboxyamide] | 239 to 242 °C (dec.) | 68
Cc1cc(Nc2cc(NCc3cc(F)cc(F)c3)c(C(N)=O)cn2)ccc1N1CCOCC1 [Example 126, 4-[(3,5-difluorobenzyl)amino]-6-[(3-methyl-4-morpholinophenyl)amino]-pyridine-3-carboxyamide] | 223 to 224 °C (dec.) | 60
Cc1c(F)cccc1CNc1cc(Nc2ccc(N3CCOCC3)cc2)ncc1C(N)=O [Example 100, 4-[(3-fluoro-2-methylbenzyl)amino]-6-[(4-morpholinophenyl)amino]pyridine-3-carboxyamide] | 229 to 230 °C | 69
NC(=O)c1cnc(Nc2ccc(N3CCCNCC3)cc2)cc1NCc1ccccc1 [Example 226, 4-(benzylamino)-6-{[4-(1,4-diazepan-1-yl)phenyl]amino}pyridine-3-carboxyamide] | 165 to 167 °C | 61
N#Cc1cc(Nc2cc(NCc3cc(F)cc(F)c3)c(C(N)=O)cn2)ccc1N1CCOCC1 [Example 125, 6-[(3-cyano-4-morpholinophenyl)amino]-4-[(3,5-difluorobenzyl)amino]pyridine-3-carboxyamide] | 213.5 to 214.1 °C (dec.) | 61
CCN(CC)CC(=O)N1CCN(c2ccc(Nc3cc(NCc4cccc([N+](=O)[O-])c4)c(C(N)=O)cn3)cc2)CC1 [Example 276, 6-({4-[4-(N,N-diethylglycyl)piperazin-1-yl]phenyl}amino)-4-[(3-nitrobenzyl)amino]pyridine-3-carboxyamide] | 190 to 191 °C (dec.) | 68
CS(=O)(=O)Nc1ccc(Nc2cc(NCc3cc(F)cc(F)c3)c(C(N)=O)cn2)cc1 [Example 159, 4-[(3,5-difluorobenzyl)amino]-6-({4-[(methylsulfonyl)amino]phenyl}amino)pyridine-3-carboxyamide] | 236 to 238 °C (dec.) | 100
NCCN1CCN(c2ccc(Nc3cc(NCc4cc(F)cc(F)c4)c(CC(N)=O)cn3)cc2)CC1 [Example 248, 6-({4-{4-(2-aminoethyl)piperazin-1-yl]phenyl}amino]-4-[(3,5-difluorobenzyl)amino]pyridine-3-carboxyamide] | 190 to 194 °C (dec.) | 
COC1CCN(c2ccc(Nc3cc(NCc4cc(F)cc(F)c4)c(C(N)=O)cn3)cc2)CC1 [Example 190, 4-[(3,5-difluorobenzyl)amino]-6-{[4-(4-methoxypiperidino)phenyl]amino}pyridine-3-carboxyamide] | 202.9 to 203.3 °C (dec.) | 89
NC(=O)c1cnc(Nc2ccc(N3CCC(O)CC3)cc2)cc1NCc1cc(F)cc(F)c1 [Example 191, 4-[(3,5-difluorobenzyl)amino]-6-{[4-(4-hydroxypiperidino)phenyl]amino}pyridine-3-carboxyamide] | 238 to 240 °C (dec.) | 63
N#CCCCN1CCN(c2ccc(Nc3cc(NCc4cccc([N+](=O)[O-])c4)c(C(N)=O)cn3)cc2)CC1 [Example 242, 6-({4-[4-(3-cyanopropyl)piperazin-1-yl]phenyl}amino)-4-[(3-nitrobenzyl)amino]pyridine-3-carboxyamide] | 190 to 191 °C (dec.) | 77
CC(C)S(=O)(=O)N1CCC(c2ccc(Nc3cc(NCc4cc(F)cc(F)c4)c(C(N)=O)cn3)cc2)CC1 [Example 296, 4-[(3,5-difluorobenzyl)amino]-6-({4-[1-(propan-2-ylsulfonyl)piperidin-4-yl]phenyl}amino) pyridine-3-carboxyamide] | 142 to 144 °C (dec.) | 
CC(=O)N1CCCN(c2ccc(Nc3cc(NCc4ccccc4)c(C(N)=O)cn3)cc2)CC1 [Example 256, 6-{[4-(4-acetyl-1,4-diazepan-1-yl)phenyl]amino}-4-(benzylamino)pyridine-3-carboxyamide] | 224 to 227 °C | 77
CCN(CC)CCN1CCN(c2ccc(Nc3cc(NCc4cccc([N+](=O)[O-])c4)c(C(N)=O)cn3)cc2)CC1 [Example 235, 6-[(4-{4-[2-(diethylamino)ethyl]piperazin-1-yl}phenyl)amino]-4-[(3-nitrobenzyl)amino]pyridine-3-carboxyamide] | 165 to 166 °C | 82
CNCCN1CCN(c2ccc(Nc3cc(NCc4cc(F)cc(F)c4)c(C(N)=O)cn3)cc2)CC1 [Example 251, 4-[(3,5-difluorobenzyl)amino]-6-[(4-{4-[2-(methylamino)ethyl]piperazin-1-yl}phenyl)amino]pyridine-3-carboxyamide] | 113 to 120 °C (dec.) | 88
CS(=O)(=O)Nc1ccc(Nc2cc(NCc3cccc([N+](=O)[O-])c3)c(C(N)=O)cn2)cc1 [Example 160, 4-[(3-nitrobenzyl)amino]-6-({4-[(methylsulfonyl)amino]phenyl}amino)pyridine-3-carboxyamide] |  | 66
N#CCCN1CCN(c2ccc(Nc3cc(NCc4ccccc4)c(C(N)=O)cn3)cc2)CC1 [Example 241] |  | 70
NCCS(=O)(=O)Nc1ccc(Nc2cc(NCc3cc(F)cc(F)c3)c(C(N)=O)cn2)cc1 [Example 305, 6-[(4-{[(2-aminoethyl)sulfonyl]amino}phenyl)amino]-4-[(3,5-difluorobenzyl)amino]pyridine-3-carboxyamide] |  | 77
NC(=O)c1cnc(Nc2ccc(N3CCNCC3)cc2)cc1NCc1cc(F)cc(F)c1 [Example 221, 4-[(3,5-difluorobenzyl)amino]-6-{[4-(piperazin-1-yl)phenyl]amino}pyridine-3-carboxyamide] |  | 78
NC(=O)c1cnc(Nc2ccc(N3CCOCC3)c(Cl)c2)cc1NCc1cc(F)cc(F)c1 [Example 127, 6-[(3-chloro-4-morpholinophenyl)amino]-4-[(3,5-difluorobenzyl)amino]pyridine-3-carboxyamide] | 222 to 223 °C (dec.) | 81
